From patent US20260234159A1, “SMALL MOLECULE TREATMENT OF FATTY LIVER DISEASE AND HCC” (SCANDIEDGE THERAPEUTICS AB, priority 2023, published 2026)
Where two headings read alike, the source gives them in different places.

Legend:
JNK3 = biological target: T1, JNK3 (Homo sapiens, UniProt P53779); assay: JNK enzyme activity assay, purified JNK3; assay type: biochemical; conditions: 10 μM; greatest inhibition was obtained for JNK3
T1 construct: purchased Thermo Fisher PV4563
Method: (§1) JNK activity was measured with JNK Activity Assay Kit (ab273417, Abcam). JNK activity assay was performed with purified JNK, JNK1 (PV3319, Thermo Fisher), JNK2 (PV3620, Thermo Fisher) JNK3(PV4563, Thermo Fisher). 0.3 μg of each JNK purified protein were incubated with c-Jun Protein/ATP in Kinase Assay Buffer for 1 hr followed by manufacturer's instruction with 10 μM small molecules. Catalysed substrate Phospho-c Jun (Ser 73) was detected by western blot analysis. Western blot analysis performed with JNK Activity Assay kit supplied anti-Phospho-cJun (Ser 73) Specific Antibody at 1:10,000 for overnight and Goat Anti-Rabbit HRP (ab205718, abeam) at 1:10,000 for 1 hr incubation as primary and secondary antibody.

JNK protein = assay: Cellular thermal shift assay (CETSA), protein-ligand binding; set-up: species or system human; conditions: 10 μM, 60° C.; versus JNK-IN-5A
Method: HepG2 cells were trypsinized and calculated at 1×10^6 cells into 1.5 ml micro centrifuge tube with 100 μl cell culture media. Cells were incubated in a CO2 incubator at 37° C. for 1 hr with 10 μM of each target drug. Drug treated cells were heated at 60° C. for 3 min using a heat plate. Heated cells were lysed with Native lysis buffer (ab156035, Abcam). Thermal shifted JNK proteins were detected with western blot analysis using JNK1+2+3 antibody (Ab179461, Abcam) and band intensity was analysed with ImageJ program.

JNK1 = biological target: T2, JNK1 (Homo sapiens, UniProt P45983); assay: JNK enzyme activity assay, purified JNK1; assay type: biochemical; conditions: 10 μM, Phospho-c Jun (Ser 73) by western blot
T2 construct: purchased Thermo Fisher PV3319
T2 sequence (P45983 whole entry): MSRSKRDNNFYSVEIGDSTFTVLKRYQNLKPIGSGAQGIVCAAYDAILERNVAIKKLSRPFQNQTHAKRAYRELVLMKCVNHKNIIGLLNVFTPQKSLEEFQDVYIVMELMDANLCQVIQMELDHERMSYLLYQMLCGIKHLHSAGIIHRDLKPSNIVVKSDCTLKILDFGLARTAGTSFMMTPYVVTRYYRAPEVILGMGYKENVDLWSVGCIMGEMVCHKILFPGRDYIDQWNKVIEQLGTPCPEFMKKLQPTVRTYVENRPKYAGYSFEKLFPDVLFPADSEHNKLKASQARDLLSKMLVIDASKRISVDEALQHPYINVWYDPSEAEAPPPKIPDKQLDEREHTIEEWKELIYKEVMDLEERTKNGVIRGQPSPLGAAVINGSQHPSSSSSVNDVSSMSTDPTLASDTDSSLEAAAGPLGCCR
Method: as §1

JNK2 = biological target: T3, JNK2 (Homo sapiens, UniProt P45984); assay: JNK enzyme activity assay, purified JNK2; assay type: biochemical; conditions: 10 μM, Phospho-c Jun (Ser 73) by western blot
T3 construct: purchased Thermo Fisher PV3620
T3 sequence (P45984 whole entry): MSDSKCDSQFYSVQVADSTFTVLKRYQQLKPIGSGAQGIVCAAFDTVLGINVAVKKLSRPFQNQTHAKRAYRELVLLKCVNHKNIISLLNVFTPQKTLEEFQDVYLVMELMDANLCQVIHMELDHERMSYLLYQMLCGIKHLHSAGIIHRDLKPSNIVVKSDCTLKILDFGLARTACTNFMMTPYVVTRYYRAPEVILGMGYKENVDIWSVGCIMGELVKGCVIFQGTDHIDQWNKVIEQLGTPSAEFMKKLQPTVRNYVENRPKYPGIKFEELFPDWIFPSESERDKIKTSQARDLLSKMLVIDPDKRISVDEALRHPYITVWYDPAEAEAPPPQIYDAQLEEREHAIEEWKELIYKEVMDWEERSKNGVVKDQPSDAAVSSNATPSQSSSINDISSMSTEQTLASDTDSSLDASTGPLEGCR
Method: as §1

HepG2 cells [1] = assay: Triglyceride (TAG) measurement assay, one week steatosis model; assay type: cell-based, human; conditions: Homo sapiens
Method: (§2) HepG2 wild type cells were purchased from genome engineering company Synthego. Cells were maintained with Roswell Park Memorial Institute growth media, RPMI, 1640 (R2405, Sigma-Aldrich) and supplemented with 10% fetal bovine serum (FBS, F7524, Sigma-Aldrich), 1% penicillin-streptomycin (P/S, P4333, Sigma-Aldrich). Steatosis induction media was prepared as high glucose Dulbecco's Modified Eagle Media (DMEM, D0819, Sigma-Aldrich) with 10% FBS, 1% P/S media supplemented with 10 μg/ml insulin (I9278, Sigma-Aldrich), and 10 μM T0901317 (T2320, Sigma-Aldrich). HepG2 cells were seeded 6×10^4 cells per well for 96-well plate and 1×10^6 cells per well for 6-well plate. HepG2 cells were incubated with steatosis induce media (SM) for one week by 3 day+2 day+2 day with total three times media exchange.
HepG2 cells were seeded at 6×10^4 cells per well into 96 well plate and induced steatosis for one week with 10 μM of target drugs. After steatosis induction, cells were washed with 200 μl of phosphate buffered saline (PBS) and triglyceride contents was measured by Triglyceride Assay Kit—Quantification (ab65336, Abcam) following manufacturer's instruction. Optical density (O.D) values were detected with microplate reader at 570 nm (Hidex Sense Beta Plus).
(§3) HepG2 cells were seeded at 60,000 cells per well in 96 well plate. Using steatosis induce media, the cells were treated with 10 μM of target drugs for one week. The media was changed 3 times at day 0, day 3 and day 5. TAG assay was performed using MAK266-1KT SDS Triglyceride Quantification Colorimetric kit and cell viability analysis was performed using MTT assay.

[2] = MTT cell viability after one week steatosis (ranking of target molecules); assay type: cell-based, human; conditions: human, HepG2 cells (wild type); HepG2, 10 μM, one week steatosis induce media, MTT; Control 100.00
Method: as §2, §3

HepG2 cells [3] = assay: FACs analysis with PI staining (cell cycle); assay type: cell-based, human; conditions: PI FACs, 10 μM, 2 days
Method: 400,000 HepG2 cells were seeded in a 6-well plated and treated with 10 μM of the compounds for 2 days. Cells were fixed with 70% ethanol and stained with 50 μg/ml PI. Prepared cells were analysed using BD FACS Canto II Flow Cytometry system at PE-A channel 10,000 cells per group. The data was histogram plotted with BD FACSDiva 9.0.

HepG2 cells [4] = assay: Mitochondrial membrane potential assay (TMRE); assay type: cell-based, human; conditions: 10 μM, one day
Method: HepG2 cells were seeded into a 6-well plate at 400,000 cells per well. After treatment with the compounds at desired concentration and time, TMRE (ab113852, abcam), Autophagy (ab139484, abcam), ROS (ab113851, abcam), and Lipid peroxidation (ab243377, abcam) assay were performed according to manufacturer's instructions. Fluorescence images were taken using ZOE™ Fluorescent Cell Imager (Biorad) and ROI of fluorescence intensity was measured and calculated by Image J. For microplate reader florescence assay, 40,000 of HepG2 cells were seeded into a 96-well plate and triplicated. GFP (Ex480 nm, Em530 nm) and RFP (Ex549 nm, Em574 nm) were measured using a microplate reader (Hidex Sense Meta Plus).

HepG2 cells [5] = assay: Wound healing assay; assay type: cell-based; conditions: Homo sapiens, HepG2, 96 h, day 4, untreated 100% wound closure, read-out: wound healing delayed by
Method: (§4) Transwell membrane was coated with 100 μl collagen (Sigma C3867, USA) diluted with PBS to a concentration of 1 mg/ml. After overnight incubation at 4° C., the collagen solution was discarded and the membrane was washed with PBS. 100,000 cells in 200 μl serum free media together with the tested compounds were added into the upper well and 600 μl of 10% FBS supplemented growth media was added to the lower well as an invasive attractant in a 24-well plate. Cells were incubated at 37° C. in a CO2 incubator for one day. The cells were fixed with 3.7% formaldehyde for 30 minutes at room temperature and washed with PBS twice. The cells were stained with 1% crystal violet in PBS for 20 minutes and residual cells in inner membrane were swabbed gently with a cotton swab. Invaded cells located at the outer membrane were imaged by ZOE Fluorescent Cell Imager (Bio-Rad, USA) and counted by image. For wound healing assay, 100,000 cells per well were seeded into 24-well plates and grown until 95-100% confluent. Linear wound was created by using a 200 μl pipette tip. Image was recorded at the time point of day 0 until control group wound closure with 1 μM of compounds by ZOE Fluorescent Cell Imager (Bio-Rad, USA). Wound areas were measured using ImageJ software.

HepG2 cells [6] = assay: Invasion assay (transwell); assay type: cell-based, human; conditions: Homo sapiens, HepG2, 24 hr, read-out: invasiveness reduced by
Method: The effects of the treatment with the compounds on the invasion ability of HepG2 and Huh7 cells were determined by 8 μm pores transwell chamber (Corning™ 3464, USA).
as §4

HepG2 cells [7] = assay: MTT cell viability / IC50 in growth media; assay type: cell-based, human; conditions: Homo sapiens, 48 h; HepG2, treatment for 2 days, 30 μM to 30 nM
Method: (§5) The cytotoxic effects of the synthesized drugs on the HepG2 cells were tested by MTT (Thiazolyl Blue Tetrazolium Bromide) method. HepG2 cells were seeded 2×10^4 cells per well in 96-well plate in 200 μL growth media. […] After the incubation period, 5 mg/ml MTT (M2128, Sigma-Aldrich) solution in PBS (10 μL) was added to each well. After 1 hr, the MTT solution and all media were removed from the wells. 100 μl of DMSO was added and mixed to dissolve the formazan crystals. Cell viability was analysed by measuring the absorbance of the dissolved formazan in a microplate reader at a wavelength of 570 nm with microplate reader (Hidex Sense Beta Plus).
(§6) HepG2 cells were maintained and used with RPMI 1640 (R2405, Sigma-Aldrich) supplemented with 10% fetal bovine serum (F7524, Sigma-Aldrich), 1% P/S (P4333, Sigma-Aldrich). 20,000 cells per well of HepG2 cells were seeded into a 96-well plate and triplicated for MTT assay and LDH assay. Cell viability was measured by MTT assay (M6494, ThermoFisher) and cytotoxicity was measured by LDH assay kit (ab65393, abcam) by following manufacturer's instructions. Optical density (O.D) was numerated using a microplate reader (Hidex Sense Meta Plus).

[8] = MTT cell viability / IC50 in growth media; assay type: cell-based, human; conditions: human, HepG2 cells; 10 μM, treatment for 2 days
Method: as §5, §6

HepG2 cells [9] = assay: MTT cell viability after one week steatosis (ranking of target molecules); assay type: cell-based, human
Method: as §2, §3

JNK1/2/3 = assay: Western blot, JNK1/2/3 P54 and p46 isoforms; assay type: cell-based, human; conditions: 10 μM, 2 days
Method: HepG2 cells were seeded into a 6-well plate at 400,000 cells per well. After treatment with 10 μM of JNK-IN-5A and its derivatives for two days, lysates were harvested with CelLytic M (C2978, Sigma-Aldrich). […] SDS PAGE were performed using Mini-PROTEAN® TGX™ Precast Gels (Bio-Rad) and transferred using Trans-Blot® Turbo™ Transfer System (Bio-Rad). […] ImageQuantTMLAS 500 (29-0050-63, GE) was used to detect protein bands.

[10] = 168 h, HepG2, 10 μM, one week steatosis induce media, Control 100.00, read-out: TAG (%)
[11] = HepG2, 168 h, ratio between TAG content and cell viability, Control 100.0, read-out: TAG/cell viability

T1 sequence (P53779 whole entry): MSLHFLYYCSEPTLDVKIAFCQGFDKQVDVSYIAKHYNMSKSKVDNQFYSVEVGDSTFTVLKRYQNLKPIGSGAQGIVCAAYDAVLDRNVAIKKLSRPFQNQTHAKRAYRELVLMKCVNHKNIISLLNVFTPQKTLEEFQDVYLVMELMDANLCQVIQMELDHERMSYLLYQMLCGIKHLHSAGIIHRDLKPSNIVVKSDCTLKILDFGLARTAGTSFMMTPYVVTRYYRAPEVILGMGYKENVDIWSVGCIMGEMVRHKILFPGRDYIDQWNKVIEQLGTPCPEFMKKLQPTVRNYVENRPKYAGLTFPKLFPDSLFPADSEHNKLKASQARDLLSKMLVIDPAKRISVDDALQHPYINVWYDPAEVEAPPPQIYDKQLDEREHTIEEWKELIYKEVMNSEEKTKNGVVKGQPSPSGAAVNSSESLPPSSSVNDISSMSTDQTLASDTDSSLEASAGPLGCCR

JNK3 activity (JNK3) | binding to the JNK protein (JNK protein) | JNK1 activity (JNK1) | JNK2 activity (JNK2) | IC50 (HepG2 cells [7]) [µM] | SMILES | activity at 10 µM (HepG2 cells [1]; [10]) [%] | activity at 10 µM (HepG2 cells [1]; [11]) [%] | viability at 1 week, 10 µM [2] [%] | Cell population G0/G1 (HepG2 cells [3]) | Cell population G2/M (HepG2 cells [3]) | Cell population S (HepG2 cells [3]) | mitochondrial membrane potential (HepG2 cells [4]) | inhibition at 1 µM (HepG2 cells [5]) [%] | inhibition at 1 µM (HepG2 cells [6]) [%] | viability at 2 days, 10 µM [8] [%] | cell viability of HepG2 (HepG2 cells [9]) | JNK1/2/3 p46 expression (JNK1/2/3)
inhibited | better binding | inhibited | inhibited | – | CN(C)C(=O)N1CCc2c(sc(NC(=O)c3cccc4ccccc34)c2C#N)C1 [PKL-A117] | 12.8 | 31.4 | 40.6 | – | – | – | – | – | – | – | – | –
inhibited | better binding | inhibited | inhibited | – | COc1ccc(C(=O)N2CCc3c(sc(NC(=O)c4cccc5ccccc45)c3C#N)C2)cc1OC [PKL-A132] | 12.8 | 31.9 | 40.3 | – | – | – | – | – | – | – | – | –

The remaining lines, values behind:

SMILES | JNK3 activity (JNK3) | binding to the JNK protein (JNK protein) | JNK1 activity (JNK1) | JNK2 activity (JNK2) | IC50 (HepG2 cells [7]) [µM] | activity at 10 µM (HepG2 cells [1]; [10]) [%] | activity at 10 µM (HepG2 cells [1]; [11]) [%] | viability at 1 week, 10 µM [2] [%] | Cell population G0/G1 (HepG2 cells [3]) | Cell population G2/M (HepG2 cells [3]) | Cell population S (HepG2 cells [3]) | mitochondrial membrane potential (HepG2 cells [4]) | inhibition at 1 µM (HepG2 cells [5]) [%] | inhibition at 1 µM (HepG2 cells [6]) [%] | viability at 2 days, 10 µM [8] [%] | cell viability of HepG2 (HepG2 cells [9]) | JNK1/2/3 p46 expression (JNK1/2/3)
N#Cc1c(NC(=O)c2cccc3ccccc23)sc2c1CCN(C(=O)Nc1ccccc1F)C2 [PKL-A119] | inhibited | better binding | inhibited | inhibited | – | 12.5 | 31.2 | 40.1 | – | – | – | – | – | – | – | – | –
CC(C)(C)OC(=O)N1CCc2c(sc(NC(=O)c3cccc4ccccc34)c2C#N)C1 [PKL-A131] | inhibited | better binding | inhibited | inhibited | – | 13.1 | 29.3 | 44.8 | – | – | – | – | – | – | – | – | –
N#Cc1c(NC(=O)c2cccc3ccccc23)sc2c1CCN(C(=O)Nc1ccccc1Cl)C2 [PKL-A156] | – | – | – | – | 15.9 | 13.5 | 50.8 | 26.6 | 30.1 | 60.8 | 2.3 | significantly decreased | 26.2 | 14 | 53.7 | exceptionally low cell viability | not significantly altered
N#Cc1c(NC(=O)c2cccc3ccccc23)sc2c1CCN(C(=O)Nc1ccccc1C(F)(F)F)C2 [PKL-A158] | – | – | – | – | 7.6 | 8.35 | – | 9.59 | 31.6 | 60.3 | 3.5 | significantly decreased | 39.5 | 20.8 | 51.9 | exceptionally low cell viability | not significantly altered
